The assay addresses T1, Lysine-specific demethylase 4C (Homo sapiens, UniProt Q9H3R0).
T1 sequence (Q9H3R0 whole entry): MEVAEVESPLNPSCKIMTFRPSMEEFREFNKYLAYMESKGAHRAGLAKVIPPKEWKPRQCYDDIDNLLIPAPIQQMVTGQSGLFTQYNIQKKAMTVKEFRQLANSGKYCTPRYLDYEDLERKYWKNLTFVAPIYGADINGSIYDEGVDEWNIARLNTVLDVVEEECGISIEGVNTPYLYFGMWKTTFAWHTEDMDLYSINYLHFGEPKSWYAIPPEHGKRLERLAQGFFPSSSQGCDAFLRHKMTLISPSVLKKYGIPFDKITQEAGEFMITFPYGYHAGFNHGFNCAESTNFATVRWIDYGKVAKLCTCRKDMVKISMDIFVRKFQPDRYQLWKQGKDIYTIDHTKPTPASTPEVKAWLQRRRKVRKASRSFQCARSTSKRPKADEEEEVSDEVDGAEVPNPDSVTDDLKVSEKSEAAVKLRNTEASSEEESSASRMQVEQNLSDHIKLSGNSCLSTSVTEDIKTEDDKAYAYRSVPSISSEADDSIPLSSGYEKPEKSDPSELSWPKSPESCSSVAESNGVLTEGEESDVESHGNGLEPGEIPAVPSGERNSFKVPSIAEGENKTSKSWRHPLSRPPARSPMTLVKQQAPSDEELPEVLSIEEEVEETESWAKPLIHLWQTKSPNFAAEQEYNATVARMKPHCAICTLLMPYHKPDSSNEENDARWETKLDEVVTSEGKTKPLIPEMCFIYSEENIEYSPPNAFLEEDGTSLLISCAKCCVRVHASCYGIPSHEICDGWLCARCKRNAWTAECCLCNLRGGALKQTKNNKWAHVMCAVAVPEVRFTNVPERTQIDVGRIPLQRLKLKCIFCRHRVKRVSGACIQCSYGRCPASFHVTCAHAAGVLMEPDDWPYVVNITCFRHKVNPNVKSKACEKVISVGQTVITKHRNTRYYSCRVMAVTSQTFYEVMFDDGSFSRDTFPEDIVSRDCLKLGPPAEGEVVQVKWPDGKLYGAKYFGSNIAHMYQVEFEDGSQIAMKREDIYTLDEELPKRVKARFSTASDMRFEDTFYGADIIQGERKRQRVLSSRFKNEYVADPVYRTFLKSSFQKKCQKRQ
The assay is described as follows: Inhibition of N-terminal his-tagged full-length human KDM4C transfected in U2OS cells assessed as inhibition of H3K9Me3 demethylation for 24 hrs.

One may read the IC50 as the point on the concentration scale where inhibition reaches its midpoint. Turning to `CC(C)c1ccc(Oc2nc3cnccc3c(=O)[nH]2)cn1`, the IC50 is 3.98 µM. With `O=c1[nH]c(Oc2ccc(Cl)c(O)c2)nc2cnccc12` the figure was 3.98 µM.

Source of the values: BindingDB's records for doi:10.1021/acs.jmedchem.5b01538 (Glaxosmithkline, 2016).
